Experimental data taken from US20260306680A1, “RADIOLABELED COMPOUNDS TARGETING THE PROSTATE-SPECIFIC MEMBRANE ANTIGEN” (PROVINCIAL HEALTH SERVICES AUTHORITY, priority 2022, published 2026).
Read-outs that look alike come from different tables or passages of the source. Values belong to the compound of their own block, whether it stands above or below them.

Assays:
[1] = Ex vivo biodistribution in mice bearing LNCaP tumor xenografts; set-up: species or system mouse (male NOD-scid IL2Rg^null (NSG)); details: mouse, iv, mean ± SD
Method: (§1) All imaging and biodistribution studies used male NOD-scid IL2Rg^null (NSG) mice and conducted according to the guidelines established by the Canadian Council on Animal Care and approved by Animal Ethics Committee of the University of British Columbia. For tumor inoculations, mice were anesthetized via inhalation of 2% isoflurane in oxygen and implanted subcutaneously with 5×10^6 LNCaP cells below the left shoulder. Imaging and biodistribution studies were performed only after tumors grew to 5-8 mm in diameter.
(§2) For PET/CT imaging studies, approximately 5 MBq of the ^18F-labeled tracer was injected through the tail vein. While for ex vivo biodistribution studies, mice were injected with around 2 MBq of the ^18F-labeled tracer through the tail vein. Mice were allowed to recover and roam freely in the cages after injecting the tracer. At 45 min post-injection, imaging mouse were sedated again and positioned on the scanner. A 10 min CT scan was conducted first to allow for localization and attenuation correction for later reconstruction of PET images. A 10 min PET image was acquired following CT scan. Heating pads were used during the entire procedure to keep the mice warm and circulate the blood. At 1 h post-injection, all mice for biodistribution study were euthanized with blood drawn from heart, and all tissues of interest were collected, rinsed with PBS, blotted dry, weighed, and counted using an automated gamma counter. The uptake in each organ/tissue was normalized to the injected dose and expressed as the percentage of the injected dose per gram of tissue (% ID/g).
(§3) Representative maximum intensity projection PET images of ^18F-KLF1007-pyridine-BF3 and ^18F-KL01040 acquired at 1 h post-injection from LNCaP tumor-bearing mice is enumerated in Table 4 and shown in FIG. 1. Representative maximum intensity projection PET images of ^18F-KL01120 and ^18F-KL01130 acquired at 1 h post-injection from LNCaP tumor-bearing mice is also enumerated in Table 5 and shown in FIG. 2 (^18F-KL1120) and enumerated in Table 6 and shown in FIG. 3 (^18F-KL01130).

LNCaP tumor xenografts = test: as above; set-up: species or system mouse (male NOD-scid IL2Rg^null (NSG)); details: mean ± SD
Method: as §1, §2, §3

[2] = adrenal glands, 1 h Blocked (co-injection of 2-PMPA, 0.5 mg), read-out: Adrenal Glands uptake
[3] = adrenal glands, 1 h post-injection, read-out: Adrenal Glands uptake
[4] = blood, 1 h Blocked (co-injection of 2-PMPA, 0.5 mg), read-out: Blood uptake
[5] = blood, 1 h post-injection, read-out: Blood uptake
[6] = bone, 1 h Blocked (co-injection of 2-PMPA, 0.5 mg), read-out: Bone uptake
[7] = bone, 1 h post-injection, read-out: Bone uptake
[8] = brain, 1 h Blocked (co-injection of 2-PMPA, 0.5 mg), read-out: Brain uptake
[9] = brain, 1 h post-injection, read-out: Brain uptake
[10] = fat, 1 h Blocked (co-injection of 2-PMPA, 0.5 mg), read-out: Fat uptake
[11] = fat, 1 h post-injection, read-out: Fat uptake
[12] = heart, 1 h Blocked (co-injection of 2-PMPA, 0.5 mg), read-out: Heart uptake
[13] = heart, 1 h post-injection, read-out: Heart uptake
[14] = kidneys, 1 h Blocked (co-injection of 2-PMPA, 0.5 mg), read-out: Kidneys uptake
[15] = kidneys, 1 h post-injection, read-out: Kidneys uptake
[16] = lacrimal glands, 1 h Blocked (co-injection of 2-PMPA, 0.5 mg), read-out: Lacrimal Glands uptake
[17] = lacrimal glands, 1 h post-injection, read-out: Lacrimal Glands uptake
[18] = large intestine, 1 h Blocked (co-injection of 2-PMPA, 0.5 mg), read-out: Large Intestine uptake
[19] = large intestine, 1 h post-injection, read-out: Large Intestine uptake
[20] = liver, 1 h Blocked (co-injection of 2-PMPA, 0.5 mg), read-out: Liver uptake
[21] = liver, 1 h post-injection, read-out: Liver uptake
[22] = lncap tumor, 1 h Blocked (co-injection of 2-PMPA, 0.5 mg), read-out: LNCaP Tumor uptake
[23] = lncap tumor, 1 h post-injection, read-out: LNCaP Tumor uptake
[24] = lungs, 1 h Blocked (co-injection of 2-PMPA, 0.5 mg), read-out: Lungs uptake
[25] = lungs, 1 h post-injection, read-out: Lungs uptake
[26] = muscle, 1 h Blocked (co-injection of 2-PMPA, 0.5 mg), read-out: Muscle uptake
[27] = muscle, 1 h post-injection, read-out: Muscle uptake
[28] = pancreas, 1 h Blocked (co-injection of 2-PMPA, 0.5 mg), read-out: Pancreas uptake
[29] = pancreas, 1 h post-injection, read-out: Pancreas uptake
[30] = salivary glands, 1 h Blocked (co-injection of 2-PMPA, 0.5 mg), read-out: Salivary Glands uptake
[31] = salivary glands, 1 h post-injection, read-out: Salivary Glands uptake
[32] = seminal gland, 1 h Blocked (co-injection of 2-PMPA, 0.5 mg), read-out: Seminal Gland uptake
[33] = seminal glands, 1 h post-injection, read-out: Seminal Glands uptake
[34] = small intestine, 1 h Blocked (co-injection of 2-PMPA, 0.5 mg), read-out: Small Intestine uptake
[35] = small intestine, 1 h post-injection, read-out: Small Intestine uptake
[36] = spleen, 1 h Blocked (co-injection of 2-PMPA, 0.5 mg), read-out: Spleen uptake
[37] = spleen, 1 h post-injection, read-out: Spleen uptake
[38] = stomach, 1 h Blocked (co-injection of 2-PMPA, 0.5 mg), read-out: Stomach uptake
[39] = stomach, 1 h post-injection, read-out: Stomach uptake
[40] = testes, 1 h Blocked (co-injection of 2-PMPA, 0.5 mg), read-out: Testes uptake
[41] = testes, 1 h post-injection, read-out: Testes uptake
[42] = thyroid, 1 h Blocked (co-injection of 2-PMPA, 0.5 mg), read-out: Thyroid uptake
[43] = thyroid, 1 h post-injection, read-out: Thyroid uptake
[44] = 1 h Blocked (co-injection of 2-PMPA, 0.5 mg)

tissue uptake at 1 h [1, 2]: 0.48 ± 0.21 %ID/g
tissue uptake at 1 h [1, 3]: 11.2 ± 4.71 %ID/g
tissue uptake at 1 h [1, 4]: 0.86 ± 0.2 %ID/g
tissue uptake at 1 h [1, 5]: 0.71 ± 0.14 %ID/g
tissue uptake at 1 h [1, 6]: 0.35 ± 0.23 %ID/g
tissue uptake at 1 h [1, 7]: 0.92 ± 0.46 %ID/g
tissue uptake at 1 h [1, 8]: 0.03 %ID/g
tissue uptake at 1 h [1, 9]: 0.05 ± 0.01 %ID/g
tissue uptake at 1 h [1, 10]: 0.18 ± 0.05 %ID/g
tissue uptake at 1 h [1, 11]: 1.57 ± 0.55 %ID/g
tissue uptake at 1 h [1, 12]: 0.35 ± 0.06 %ID/g
tissue uptake at 1 h [1, 13]: 2.9 ± 0.66 %ID/g
tissue uptake at 1 h [1, 14]: 4.29 ± 1.34 %ID/g
tissue uptake at 1 h [1, 15]: 88.1 ± 17.4 %ID/g
tissue uptake at 1 h [1, 16]: 0.07 ± 0.05 %ID/g
tissue uptake at 1 h [1, 17]: 0.06 ± 0.03 %ID/g
tissue uptake at 1 h [1, 18]: 0.25 ± 0.1 %ID/g
tissue uptake at 1 h [1, 19]: 1.11 ± 0.42 %ID/g
tissue uptake at 1 h [1, 20]: 0.59 ± 0.1 %ID/g
tissue uptake at 1 h [1, 21]: 2.64 ± 0.57 %ID/g
tissue uptake at 1 h [1, 22]: 1.87 ± 0.46 %ID/g
tissue uptake at 1 h [1, 23]: 6.21 ± 1.25 %ID/g
tissue uptake at 1 h [1, 24]: 0.81 ± 0.18 %ID/g
tissue uptake at 1 h [1, 25]: 4.1 ± 0.71 %ID/g
tissue uptake at 1 h [1, 26]: 0.27 ± 0.18 %ID/g
tissue uptake at 1 h [1, 27]: 0.9 ± 0.2 %ID/g
tissue uptake at 1 h [1, 28]: 0.27 ± 0.07 %ID/g
tissue uptake at 1 h [1, 29]: 2.22 ± 0.66 %ID/g
tissue uptake at 1 h [1, 30]: 0.35 ± 0.08 %ID/g
tissue uptake at 1 h [1, 31]: 9.18 ± 2.36 %ID/g
tissue uptake at 1 h [1, 32]: 0.76 ± 0.19 %ID/g
tissue uptake at 1 h [1, 33]: 0.98 ± 0.42 %ID/g
tissue uptake at 1 h [1, 34]: 1.83 ± 0.37 %ID/g
tissue uptake at 1 h [1, 35]: 4.51 ± 0.87 %ID/g
tissue uptake at 1 h [1, 36]: 0.29 ± 0.03 %ID/g
tissue uptake at 1 h [1, 37]: 22.1 ± 2.92 %ID/g
tissue uptake at 1 h [1, 38]: 0.14 ± 0.06 %ID/g
tissue uptake at 1 h [1, 39]: 0.68 ± 0.17 %ID/g
tissue uptake at 1 h [1, 40]: 0.28 ± 0.07 %ID/g
tissue uptake at 1 h [1, 41]: 0.92 ± 0.29 %ID/g
tissue uptake at 1 h [1, 42]: 0.33 ± 0.08 %ID/g
tissue uptake at 1 h [1, 43]: 4.53 ± 0.74 %ID/g
Tumor:Muscle uptake ratio (LNCaP tumor xenografts; [44]): 9.96 ± 3.13
Tumour:Blood uptake ratio (LNCaP tumor xenografts; [44]): 2.21 ± 0.46
Tumour:Bone uptake ratio (LNCaP tumor xenografts; [44]): 8.46 ± 4.80
Tumour:Kidney uptake ratio (LNCaP tumor xenografts; [44]): 0.45 ± 0.05
Tumor:Muscle uptake ratio (LNCaP tumor xenografts; 1 h post-injection): 6.58 ± 1.38
Tumour:Blood uptake ratio (LNCaP tumor xenografts; 1 h post-injection): 8.41 ± 2.02
Tumour:Bone uptake ratio (LNCaP tumor xenografts; 1 h post-injection): 9.31 ± 3.39
Tumour:Kidney uptake ratio (LNCaP tumor xenografts; 1 h post-injection): 0.07 ± 0.02
SMILES: O=C(O)CC[C@H](NC(=O)N[C@@H](CCCCNC(=O)[C@H](Cc1c2ccccc2cc2ccccc12)NC(=O)[C@H]1CC[C@H](CNC(=O)[C@H](CCNC(=O)c2ccc(F)nc2)NC(=O)CCC(=O)N(CC(=O)O)CC(=O)O)CC1)C(=O)O)C(=O)O [^18F-KL01120]

tissue uptake at 1 h [1, 2]: 0.39 ± 0.17 %ID/g
tissue uptake at 1 h [1, 3]: 0.59 ± 0.06 %ID/g
tissue uptake at 1 h [1, 4]: 1.78 ± 0.12 %ID/g
tissue uptake at 1 h [1, 5]: 1.2 ± 0.26 %ID/g
tissue uptake at 1 h [1, 6]: 0.57 ± 0.16 %ID/g
tissue uptake at 1 h [1, 7]: 0.52 ± 0.17 %ID/g
tissue uptake at 1 h [1, 8]: 0.04 %ID/g
tissue uptake at 1 h [1, 9]: 0.04 ± 0.01 %ID/g
tissue uptake at 1 h [1, 10]: 0.33 ± 0.1 %ID/g
tissue uptake at 1 h [1, 11]: 0.22 ± 0.09 %ID/g
tissue uptake at 1 h [1, 12]: 0.45 ± 0.05 %ID/g
tissue uptake at 1 h [1, 13]: 0.34 ± 0.07 %ID/g
tissue uptake at 1 h [1, 14]: 4.77 ± 0.3 %ID/g
tissue uptake at 1 h [1, 15]: 19 ± 5.04 %ID/g
tissue uptake at 1 h [1, 16]: 0.04 ± 0.02 %ID/g
tissue uptake at 1 h [1, 17]: 0.1 ± 0.06 %ID/g
tissue uptake at 1 h [1, 18]: 0.26 ± 0.1 %ID/g
tissue uptake at 1 h [1, 19]: 0.2 ± 0.1 %ID/g
tissue uptake at 1 h [1, 20]: 0.67 ± 0.07 %ID/g
tissue uptake at 1 h [1, 21]: 0.47 ± 0.06 %ID/g
tissue uptake at 1 h [1, 22]: 2.11 ± 0.02 %ID/g
tissue uptake at 1 h [1, 23]: 8.01 ± 0.9 %ID/g
tissue uptake at 1 h [1, 24]: 1.22 ± 0.17 %ID/g
tissue uptake at 1 h [1, 25]: 0.96 ± 0.19 %ID/g
tissue uptake at 1 h [1, 26]: 0.2 ± 0.02 %ID/g
tissue uptake at 1 h [1, 27]: 0.34 ± 0.24 %ID/g
tissue uptake at 1 h [1, 28]: 0.32 ± 0.04 %ID/g
tissue uptake at 1 h [1, 29]: 0.21 ± 0.05 %ID/g
tissue uptake at 1 h [1, 30]: 0.49 ± 0.14 %ID/g
tissue uptake at 1 h [1, 31]: 0.52 ± 0.18 %ID/g
tissue uptake at 1 h [1, 32]: 0.22 ± 0.06 %ID/g
tissue uptake at 1 h [1, 33]: 0.15 ± 0.04 %ID/g
tissue uptake at 1 h [1, 34]: 2.4 ± 0.36 %ID/g
tissue uptake at 1 h [1, 35]: 2.01 ± 0.6 %ID/g
tissue uptake at 1 h [1, 36]: 0.31 ± 0.06 %ID/g
tissue uptake at 1 h [1, 37]: 0.36 ± 0.09 %ID/g
tissue uptake at 1 h [1, 38]: 0.36 ± 0.15 %ID/g
tissue uptake at 1 h [1, 39]: 0.19 ± 0.11 %ID/g
tissue uptake at 1 h [1, 40]: 0.41 ± 0.05 %ID/g
tissue uptake at 1 h [1, 41]: 0.29 ± 0.05 %ID/g
tissue uptake at 1 h [1, 42]: 0.48 ± 0.03 %ID/g
tissue uptake at 1 h [1, 43]: 0.38 ± 0.16 %ID/g
Tumor:Muscle uptake ratio (LNCaP tumor xenografts; [44]): 10.4 ± 1.31
Tumour:Blood uptake ratio (LNCaP tumor xenografts; [44]): 1.19 ± 0.12
Tumour:Bone uptake ratio (LNCaP tumor xenografts; [44]): 3.89 ± 1.05
Tumour:Kidney uptake ratio (LNCaP tumor xenografts; [44]): 0.44 ± 0.05
Tumor:Muscle uptake ratio (LNCaP tumor xenografts; 1 h post-injection): 35.7 ± 5.75
Tumour:Blood uptake ratio (LNCaP tumor xenografts; 1 h post-injection): 6.93 ± 1.54
Tumour:Bone uptake ratio (LNCaP tumor xenografts; 1 h post-injection): 14.6 ± 4.27
Tumour:Kidney uptake ratio (LNCaP tumor xenografts; 1 h post-injection): 0.59 ± 0.35
SMILES: O=C(O)CCC[C@H](NC(=O)N[C@@H](CCCCNC(=O)[C@H](Cc1c2ccccc2cc2ccccc12)NC(=O)[C@H]1CC[C@H](CNC(=O)CNC(=O)[C@H](CCCCNC(=O)c2ccc(F)nc2)NC(=O)CN(CC(=O)O)CC(=O)O)CC1)C(=O)O)C(=O)O [^18F-KL01130]
